Literature values in PMC7214178, “Ligand‐specific recycling profiles determine distinct potential for chronic analgesic tolerance of delta‐opioid receptor (DOPr) agonists” (Journal of Cellular and Molecular Medicine, 2020).

Assays:
[1] = test system: endothelin‐converting enzyme 2 (ECE2); details: endosomal protease that functions at acidic pH; cited from earlier work
Text: Indeed, deltorphin II is a naturally occurring opioid peptide ^32 and TIPP is an opioid peptide analogue. ^33 On the other hand, SNC‐80 ^34 and SB235863 ^35 are synthetic, non‐peptide ligands.

[2] = peptidic ligands; cited from earlier work

Substance: deltorphin II
- Substrate of ECE2 [1]: one of the ECE2 substrates
- Blood‐brain barrier penetration [2]: poor blood‐brain barrier penetration
